From paper PMC12177760, “In Silico Discovery of a Novel Antiviral Scaffold for SARS-CoV‑2 Targeting the Spike Glycoprotein through the Fatty Acid Binding Pocket” (ACS Omega, 2025)

Tested on: SARS-CoV-2 Delta variant in Vero E6 cells
Assay: microbe, parasite or virus in culture
Assay type: cell-based

Question: For `CC(c1ccc(-n2cncn2)cc1)N(C)C(=O)CCC(=O)N1CCC(c2ccccc2)=N1` (centres unmarked) [compound 36], which EC50 (Severe acute respiratory syndrome coronavirus 2, Vero C1008, read-out: EC50 (inhibition of Delta variant-induced CPE)) is on record?
Answer: 5.77 µM

Question: And the inhibition at 33 µM (Severe acute respiratory syndrome coronavirus 2, Vero C1008, 33 μM, read-out: maximum inhibition of CPE)?
Answer: 78%
